Measurements from a flash point compilation (Sun et al. 2020).
Counter-ions that a name gives are not always drawn.

Row | SMILES | flash point [°C]
1 | CC(=O)OCc1ccco1 [furan-2-ylmethyl acetate] | 66.00
2 | CCCCCCCCCCCCCCCCCCCCC [henicosane] | 113.00
3 | CCCCCCCCCCCCCCCCN [hexadecan-1-amine] | 141.00
4 | CCCCCCCCCCCCCCCC [hexadecane] | 135.00
5 | NCCCCCCN [hexane-1,6-diamine] | 81.00
6 | CCCCCCCCCCCCCCCCCCCC [icosane] | 100.00
7 | Ic1ccccc1 [iodobenzene] | 77.00
8 | O=C=Nc1ccccc1 [isocyanatobenzene] | 56.00
9 | CN [methanamine] | 0.00
10 | CS(=O)(=O)O [methanesulfonic acid] | 189.00
11 | CO [methanol] | 11.00
12 | COC(=O)c1ccccc1N [methyl 2-aminobenzoate] | 104.00
13 | COC(=O)CCl [methyl 2-chloroacetate] | 52.00
14 | COC(=O)c1ccccc1 [methyl benzoate] | 83.00
15 | COC=O [methyl formate] | -32.00
16 | COS(=O)(=O)C(F)(F)F [methyl trifluoromethanesulfonate] | 38.00
17 | CC1CCCCC1 [methylcyclohexane] | -4.00
18 | CN=C=O [methylimino(oxo)methane] | -7.00
19 | CN=C=S [methylimino(sulfanylidene)methane] | 35.00
20 | Oc1cccc2ccccc12 [naphthalen-1-ol] | 153.00
21 | Nc1ccc2ccccc2c1 [naphthalen-2-amine] | 157.00
22 | Oc1ccc2ccccc2c1 [naphthalen-2-ol] | 153.00
23 | Nc1cccc2c(N)cccc12 [naphthalene-1,5-diamine] | 226.00
24 | O=[N+]([O-])c1ccccc1 [nitrobenzene] | 88.00
25 | CCCCCCCCCS [nonane-1-thiol] | 78.00
26 | C=CCCCCC=C [octa-1,7-diene] | 9.00
27 | CCCCCCCCCCCCCCCCCCO [octadecan-1-ol] | 200.00

Now from value to molecule:

Row | flash point [°C] | SMILES
28 | 71.00 | CCCCCC(C)O (centres undefined) [heptan-2-ol]
29 | 39.00 | CCCCCC(C)=O [heptan-2-one]
30 | 46.00 | CCCCC(=O)CC [heptan-3-one]
31 | 49.00 | CCCC(=O)CCC [heptan-4-one]
32 | -4.00 | CCCCCCC [heptane]
33 | 68.00 | CCCCCCCOC(C)=O [heptyl acetate]
34 | 127.00 | CC=CC=CC(=O)O [hexa-2,4-dienoic acid]
35 | 23.00 | CCCCC(C)=O [hexan-2-one]
36 | 102.00 | OCCCCCCO [hexane-1,6-diol]
37 | 101.00 | CC(O)CCC(C)O (centres undefined) [hexane-2,5-diol]
38 | 191.00 | O=C(O)CCCCC(=O)O [hexanedioic acid]
39 | 68.00 | C=CC(=O)OCCCCCC [hexyl prop-2-enoate]
40 | 79.00 | C=C(C#N)C(=O)OC [methyl 2-cyanoprop-2-enoate]
41 | 51.00 | COC(=O)C(C)O (centres undefined) [methyl 2-hydroxypropanoate]
42 | 10.00 | C=C(C)C(=O)OC [methyl 2-methylprop-2-enoate]
43 | 70.00 | COC(=O)CC(C)=O [methyl 3-oxobutanoate]
44 | 22.00 | CCCCC(=O)OC [methyl pentanoate]
45 | -38.00 | CSC [methylsulfanylmethane]
46 | 26.00 | CC=CCCCCCC [non-2-ene]
47 | 64.00 | CCCCCCCC(C)=O [nonan-2-one]
48 | 60.00 | CCCCC(=O)CCCC [nonan-5-one]
49 | 31.00 | CCCCCCCCC [nonane]
